The text below walks through data of US20240409536A1, “COMPOUNDS AND METHODS FOR MODULATING SPLICING” (REMIX THERAPEUTICS INC., priority 2021, published 2024).

Data set [1] deals with HTT mRNA. The data set can be described thus: Gene panel canonical junction qPCR assay, HTT CJ mRNA decrease. In kind it is cell-based, human. The conditions noted are these: Homo sapiens, canonical junction qPCR, read-out: HTT IC50 (decrease in CJ mRNA levels). The method, boiled down:
(§1)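 A673 or K562 cells were treated with compound, and lysates underwent cDNA synthesis and qPCR with a CY5 5′-nuclease probe or primer spanning the canonical exon junction. ΔCt versus GAPDH, GUSB or PPIA was normalized to DMSO (2^(−ΔΔCt)), converted to percentage response and fitted four-parameter logistic for IC50.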
(In general: Real-time PCR tracks product formation cycle by cycle.)

Data set [2] relates to MYB mRNA. The data set can be described thus: Gene panel canonical junction qPCR assay, MYB CJ mRNA decrease. The data set is classed as cell-based, human. The conditions noted are these: Homo sapiens, canonical junction qPCR, read-out: MYB IC50 (decrease in CJ mRNA levels). Summed up:
as §1

In data set [3] the test system is SMN2 mRNA. The data set can be described thus: Gene panel canonical junction qPCR assay, SMN2 CJ mRNA decrease. The data set is classed as cell-based, human. The conditions noted are these: Homo sapiens, canonical junction qPCR, read-out: SMN2 IC50 (decrease in CJ mRNA levels). The method, boiled down:
as §1

Data set [4] concerns HiBiT-tagged MYB protein. Briefly: HiBiT protein abundance assay, MYB (K562 HiBiT knock-in cells). In kind it is cell-based, human. Conditions: 24 hours. The method, boiled down:
(§2)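 K562 cells with endogenous HiBiT knock-in tag, 10-point 3-fold dilutions (top 10 μM final, ≤0.25% DMSO), 24 h at 37 °C. Lytic Nano-Glo HiBiT luminescence, normalized to DMSO and unmodified K562 baselines; IC50 is concentration giving 50% protein abundance from four-parameter fit.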
(In general: With HiBiT, luminescence reflects the tagged protein that the partner subunit can reach.)

Data set [5] concerns HiBiT-tagged HTT protein. Briefly: HiBiT protein abundance assay, HTT (K562 HiBiT knock-in cells). The conditions noted are these: 24 hours. In kind it is cell-based, human. The method, boiled down: as §2
In data set [6] the test system is Target C. Briefly: HiBiT protein abundance assay, Target C (K562 HiBiT knock-in cells). In kind it is cell-based, human. Conditions: 24 hours. The method, boiled down: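 K562 knock-in cells (10000/well, IMDM+1% FBS) treated 24 h at 37 °C with 10-point 3-fold dilutions, top final 10 μM, DMSO ≤0.25%. HiBiT lytic luminescence read; response normalized to unmodified K562 and DMSO-treated controls. IC50 interpolated at 50% abundance by four-parameter logistic fit.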

Data set [7] deals with K562 cells. Briefly: Cell Titer Glo 2.0 cell viability assay in K562 cells. Conditions: 72 hours. A general note: ATP-based viability assays read luminescence as a measure of living cells.

Structures are written as SMILES. Some results are limits rather than exact numbers.

As a reminder, the IC50 is the point on the concentration scale where inhibition reaches its midpoint.

For `Cc1cn2cc(NC(=O)c3ccc(N4C[C@@H](C)N[C@@H](C)C4)c4nccnc34)nc2c(C)n1` [Compound 359], the IC50 in data set [1] was more than 10 µM; in data set [2], 0.1 to 1 µM; in data set [3] it was less than 0.1 µM; in data set [4], 0.1 to 1 µM; in data set [5] it was more than 10 µM; in data set [6] it was more than 10 µM. Also, in data set [7], the Viability result is on record as “B (B represents 100-1000 nM)”.

`C[C@@H]1CN(c2ccc(C(=O)Nc3cc(F)c4nc(O)cn4c3)c3nccnc23)C[C@H](C)N1` [Compound 360]: the IC50 in data set [1] is more than 10 µM; in data set [2], more than 10 µM; in data set [3], 1 to 10 µM; in data set [4], more than 10 µM; in data set [5], more than 10 µM; in data set [6], more than 10 µM. Moreover, the Viability entry in data set [7] was “D (D represents greater than 10 μM in K562 cells)”.

For `Cc1cn2cc(NC(=O)c3ccc(N4CCN[C@H](CO)C4)c4nccnc34)cc(F)c2n1` [Compound 362], the half-inhibitory concentration (IC50) in data set [1] was 1 to 10 µM; in data set [2], 0.1 to 1 µM; in data set [3], less than 0.1 µM; in data set [4] it was 0.1 to 1 µM; in data set [5], 1 to 10 µM; in data set [6], 1 to 10 µM. In addition, the Viability entry in data set [7] is recorded as “B (B represents 100-1000 nM)”.

With `Cc1cn2cc(NC(=O)c3ccc(N4CCNC5(CCC5)C4)c4nccnc34)cc(F)c2n1` [Compound 363], the IC50 is 1 to 10 µM in data set [1]; 0.1 to 1 µM in data set [2]; less than 0.1 µM in data set [3]; less than 0.1 µM in data set [4]; 1 to 10 µM in data set [5]; 1 to 10 µM in data set [6]. Moreover, the Viability entry in data set [7] is reported as “A (A represents <100 nM)”.

Regarding `Cc1cn2cc(NC(=O)c3ccc(N4CCN(C)C5(CC5)C4)c4nccnc34)cc(F)c2n1` [Compound 364], the IC50 was 0.1 to 1 µM in data set [1]; 0.1 to 1 µM in data set [2]; less than 0.1 µM in data set [3]; 0.1 to 1 µM in data set [4]; 0.1 to 1 µM in data set [5]; 1 to 10 µM in data set [6]. In addition, the Viability entry in data set [7] is listed as “B (B represents 100-1000 nM)”.

Turning to `CCN1CCN(c2ccc(C(=O)Nc3cc(F)c4nc(C)cn4c3)c3nccnc23)CC12CC2` [Compound 365], the half-maximal inhibitory concentration (IC50) was 0.1 to 1 µM in data set [1]; 0.1 to 1 µM in data set [2]; less than 0.1 µM in data set [3]; 0.1 to 1 µM in data set [4]; 0.1 to 1 µM in data set [5]; 1 to 10 µM in data set [6]. For the same molecule, in data set [7], the Viability entry is reported as “B (B represents 100-1000 nM)”.

For the molecule `Cc1cn2cc(NC(=O)c3ccc(N4CCN[C@H](CF)C4)c4nccnc34)cc(F)c2n1` [Compound 366], the IC50 was 1 to 10 µM in data set [1]; 0.1 to 1 µM in data set [2]; less than 0.1 µM in data set [3]; 0.1 to 1 µM in data set [4]; 1 to 10 µM in data set [5]; 1 to 10 µM in data set [6]. The Viability result in data set [7] is on record as “C (C represents 1000-9999 nM)”.

For `Cc1cn2cc(NC(=O)c3ccc(N4CCN[C@@H](CF)C4)c4nccnc34)cc(F)c2n1` [Compound 367], the IC50 in data set [1] lay in the range of 1 to 10 µM; in data set [2] it was 1 to 10 µM; in data set [3], 0.1 to 1 µM; in data set [4] it was 1 to 10 µM; in data set [5], 1 to 10 µM; in data set [6], 1 to 10 µM. Besides, the Viability entry in data set [7] is listed as “C (C represents 1000-9999 nM)”.

Take `Cc1cn2cc(NC(=O)c3ccc(N4CCNC(C)(CO)C4)c4nccnc34)cc(F)c2n1` (stereo not shown) [Compound 368]: the IC50 in data set [1] is 1 to 10 µM; in data set [2] it was less than 0.1 µM; in data set [3] it was less than 0.1 µM; in data set [4], less than 0.1 µM; in data set [5] it was 1 to 10 µM; in data set [6] it was 1 to 10 µM. Also, in data set [7], the Viability entry is “B (B represents 100-1000 nM)”.

On to `Cc1cn2cc(NC(=O)c3ccc(N4CCN(CCO)C5(CC5)C4)c4nccnc34)cc(F)c2n1` [Compound 369], for which the IC50 is 1 to 10 µM in data set [1]; 0.1 to 1 µM in data set [2]; less than 0.1 µM in data set [3]; 0.1 to 1 µM in data set [4]; 1 to 10 µM in data set [5]; 1 to 10 µM in data set [6]. Besides, the Viability result in data set [7] is given as “C (C represents 1000-9999 nM)”.
